Measurements published in patent US10000452B1, “Quinolone-based compounds, formulations, and uses thereof” (University of South Florida, priority 2016, dated 2018).
≈ marks a conversion by molar mass, not a printed value. Where two headings read alike, the source gives them in different places.

What was measured:
[1] = tested on: malarial strain W2 (pyrimethamine and chloroquine-resistant); assay: in vitro antimalarial activity against multidrug resistant strain W2; type: cell-based, P. falciparum
J774 mammalian cells = assay: cytotoxicity to J774 cells; type: cell-based; conditions: Mus musculus
Method: This allowed a simplified method for comparing the different assays being simultaneously run. Additionally, each compound was also tested for cytotoxicity using mammalian J774 cell lines in a 96-well plate format.^12-14, 16

[2] = tested on: malarial strain TM90-C2B (mefloquine, chloroquine, atovaquone, and pyrimethamine-resistant); assay: microbe, parasite or virus in culture; type: cell-based, P. falciparum; conditions: for RI: RI = EC50 TM90-C2B/EC50 W2
Text: Ideally, the RI of a compound should lie between 0.3 and 3.0 in order to avoid rapidly inducing resistance in the parasite. […]

[3] = tested on: P. berghei sporozoites expressing luciferase; assay: in vitro liver stage activity, luciferase sporozoites infecting HEPG2 hepatoma cells; type: cell-based
Pb-infected mice = assay: in vivo efficacy scouting assay against blood stages; design: species or system P. berghei; mice; conditions: for % inhibition on day 6 PE: Example 2: two mice, single 50 mg/kg oral dose in PEG400 on day 1 PE; for % Inhibition Day 6 PI: vs untreated animals
Method: The screening involved a single oral 50 mg/kg dose 1 day post infection (PI) and an assessment of parasitemia on days 3 PI and 6 PI (Table 6).
The screening was performed by treating two infected mice with a single 50 mg/kg oral dose of test compound suspended in PEG400 on day 1 postexposure (PE) followed by assessing parasitemia on days 3 and 6 PE.

[4] = aqueous solubility (LC/MS- or HPLC-based assay); type: physicochemical
Text: (§1) Furthermore, to profile the properties of the piperazinyl-4(1H)-quinolones, and to identify potential limitations, aqueous solubility and lipophilicity log D were experimentally determined via LC/MS-based assays as described by the Manetsch laboratory previously^8,10,31,32 (Tables 9-12). Encouragingly, the piperazinyl-4(1H)-quinolones were much more soluble than the previously described phenoxyethoxy-4(1H)-quinolone analogues.^19 As expected, the solubility of all compounds was affected by pH, with better solubility under more acidic conditions.
(§2) In parallel to testing the compounds for in vitro antimalarial activity, a limited structure-property relationship (SPR) study focusing on log D and aqueous solubility was conducted to assess potential physiochemical liabilities (FIG. 22). […] For these reasons, physicochemical properties were not strongly considered as selection criteria for in vivo efficacy studies.

[5] = lipophilicity log D at pH 7.4; type: physicochemical; conditions: octanol/water
Text: as §1, §2

[6] = Plasmodium falciparum, read-out: EC50 W2 (nM)
[7] = Plasmodium falciparum, TM90, read-out: EC50 TM90-C2B (nM)
[8] = Plasmodium berghei, HEPG2 cells
[9] = aqueous medium, pH 2, simulated gastric fluid, pH 2.0, read-out: Solubility pH 2.0
[10] = aqueous medium, pH 6.5, aqueous buffer, pH 6.5, read-out: Solubility pH 6.5
[11] = aqueous solution (buffer not named), pH 2, simulated gastric fluid, pH 2.0, read-out: Solubility pH 2.0
[12] = aqueous solution (buffer not named), pH 6.5, aqueous buffer, pH 6.5, read-out: Solubility pH 6.5
[13] = single oral 50 mg/kg dose 1 day PI
[14] = aqueous solution, pH 2, simulated gastric fluid, pH 2.0, read-out: Solubility pH 2.0
[15] = aqueous solution, pH 6.5, aqueous buffer, pH 6.5, read-out: Solubility pH 6.5

CCCCc1cc2c(=O)c(CC)c[nH]c2cc1OCCOc1ccccc1 [Compound 6ae, 6-Butyl-3-ethyl-7-(2-phenoxyethoxy)quinolin-4(1H)-one]
EC50 [1, 6]: 0.44 nM | EC50 (J774 mammalian cells; J774, read-out: EC50 J774): 0.36 µM | EC50 [2, 7]: 1.92 nM | RI [2]: 4.36 | EC50 [3, 8]: 2650 pM | % inhibition on day 6 PE (Pb-infected mice): lack of significant parasitemia reduction

COC(=O)c1c[nH]c2cc(OCCCc3ccccc3)ccc2c1=O [Compound 6j, Methyl 4-Oxo-7-(3-phenylpropoxy)-1,4-dihydroquinoline-3-carboxylate]
EC50 [1, 6]: 0.711 nM | EC50 [3, 8]: 5260 pM | % inhibition on day 6 PE (Pb-infected mice): 47.1%

COC(=O)c1c[nH]c2cc(OCCOc3ccccc3)c(Br)cc2c1=O [Compound 6z, Methyl 6-Bromo-4-oxo-7-(2-phenoxyethoxy)-1,4-dihydroquinoline-3-carboxylate]
EC50 [1, 6]: 4.47 nM | EC50 [2, 7]: 847 nM | EC50 [3, 8]: 336 pM

CCCCc1cc2c(=O)c(C(=O)O)c[nH]c2cc1OCCOc1ccccc1 [Compound 7b, 6-Butyl-4-oxo-7-(2-phenoxyethoxy)-1,4-dihydroquinoline-3-carboxylic Acid]
EC50 [1, 6]: 64 nM | EC50 [2, 7]: 1110 nM | EC50 [3, 8]: 267 pM

COC(=O)c1c[nH]c2cc(CCN3CCN(c4ccccc4)CC3)ccc2c1=O [Compound 8ac, Methyl 4-oxo-7-(2-(4-phenylpiperazin-1-yl)ethyl)-1,4-dihydroquinoline-3-carboxylate]
EC50 [1, 6]: 25.6 nM | EC50 (J774 mammalian cells; J774, read-out: EC50 J774 (μM)): > 20 µM | EC50 [2, 7]: 1500 nM | RI [2]: 58.6 | solubility [4, 9]: ≥ 80 µM | solubility [4, 10]: ≥ 80 µM | chromatographic logD [5]: 5.11

COC(=O)c1c[nH]c2cc(CCN3CCN(Cc4ccccc4)CC3)ccc2c1=O [Compound 8ad, Methyl 7-(2-(4-benzylpiperazin-1-yl)ethyl)-4-oxo-1,4-dihydroquinoline-3-carboxylate]
EC50 [1, 6]: 116 nM | EC50 (J774 mammalian cells; J774, read-out: EC50 J774 (μM)): > 20 µM | EC50 [2, 7]: 6170 nM | EC50 [3, 8]: 157000 pM | solubility [4, 9]: ≥ 80 µM | solubility [4, 10]: ≥ 80 µM | chromatographic logD [5]: 1.72

COC(=O)c1c[nH]c2cc(CCN3CCN(Cc4ccc(OC)cc4)CC3)ccc2c1=O [Compound 8ae, Methyl 7-(2-(4-(4-methoxybenzyl)piperazin-1-yl)ethyl)-4-oxo-1,4-dihydroquinoline-3-carboxylate]
EC50 [1, 6]: 11.6 nM | EC50 (J774 mammalian cells; J774, read-out: EC50 J774 (μM)): > 20 µM | RI [2]: >495 | solubility [4, 9]: ≥ 80 µM | solubility [4, 10]: ≥ 80 µM | chromatographic logD [5]: 1.68

COC(=O)c1c[nH]c2ccc(CN3CCN(c4ccc(F)cc4)CC3)cc2c1=O [Compound 8ah, Methyl 6-((4-(4-fluorophenyl)piperazin-1-yl)methyl)-4-oxo-1,4-dihydroquinoline-3-carboxylate]
EC50 [1, 6]: 106 nM | EC50 (J774 mammalian cells; J774, read-out: EC50 J774 (μM)): > 20 µM | EC50 [2, 7]: 2900 nM | RI [2]: 27.4 | solubility [4, 11]: ≥ 80 µM | solubility [4, 12]: ≥ 80 µM | chromatographic logD [5]: 2.17

O=c1c(Cl)c[nH]c2cc(CN3CCN(c4ccc(F)cc4)CC3)ccc12 [Compound 8al, 3-Chloro-7-((4-(4-fluorophenyl)piperazin-1-yl)methyl)quinolin-4(1H)-one]
EC50 [1, 6]: 1060 nM | EC50 (J774 mammalian cells; J774, read-out: EC50 J774 (μM)): > 20 µM | EC50 [2, 7]: 2290 nM | activities in these scout assays (Pb-infected mice; single oral 50 mg/kg dose 1 day PI, result in words): excellent activities | % Inhibition Day 6 PI (Pb-infected mice; [13]): 71.9% | solubility [4, 11]: ≥ 80 µM | solubility [4, 12]: 40 to 59.9 µM (≈ 14.9 to 22.3 µg/mL) | chromatographic logD [5]: 2.57

Cc1cc(=O)c2ccc(CN3CCN(c4ccc(F)cc4)CC3)cc2[nH]1 [Compound 8am, 7-((4-(4-Fluorophenyl)piperazin-1-yl)methyl)-2-methylquinolin-4(1H)-one]
EC50 [1, 6]: 1220 nM | EC50 (J774 mammalian cells; J774, read-out: EC50 J774 (μM)): > 20 µM | EC50 [2, 7]: 1450 nM | RI [2]: 1.19 | solubility [4, 11]: ≥ 80 µM | solubility [4, 12]: ≥ 80 µM | chromatographic logD [5]: 2.44

COC(=O)c1c[nH]c2cc(N3CCN(c4ccccc4)CC3)c(C)cc2c1=O [Compound 8c, Methyl 6-methyl-4-oxo-7-(4-phenylpiperazin-1-yl)-1,4-dihydroquinoline-3-carboxylate]
EC50 [1, 6]: 45.5 nM | EC50 (J774 mammalian cells; J774, read-out: EC50 J774 (μM)): 16.7 µM | EC50 [2, 7]: 1110 nM | % Inhibition Day 6 PI (Pb-infected mice; [13]): little to moderate protection | solubility [4, 9]: ≥ 80 µM | solubility [4, 10]: 40 to 59.9 µM (≈ 15.1 to 22.6 µg/mL) | chromatographic logD [5]: 2.31

COC(=O)c1c[nH]c2cc(N3CCN(c4ccccc4)CC3)c(OC)cc2c1=O [Compound 8d, Methyl 6-methoxy-4-oxo-7-(4-phenylpiperazin-1-yl)-1,4-dihydroquinoline-3-carboxylate]
EC50 [1, 6]: 37.2 nM | EC50 (J774 mammalian cells; J774, read-out: EC50 J774 (μM)): 16.8 µM | % Inhibition Day 6 PI (Pb-infected mice; [13]): little to moderate protection | solubility [4, 9]: ≥ 80 µM | solubility [4, 10]: 1 to 19.9 µM (≈ 0.393 to 7.83 µg/mL) | chromatographic logD [5]: 2.64

COC(=O)c1c[nH]c2cc(N3CCN(c4ccc(OC)cc4)CC3)ccc2c1=O [Compound 8e, Methyl 7-(4-(4-methoxyphenyl)piperazin-1-yl)-4-oxo-1,4-dihydroquinoline-3-carboxylate]
EC50 [1, 6]: 7.76 nM | EC50 (J774 mammalian cells; J774, read-out: EC50 J774 (μM)): > 20 µM | EC50 [2, 7]: 154 nM | RI [2]: 19.8 | solubility [4, 14]: 40 to 59.9 µM (≈ 15.7 to 23.6 µg/mL) | solubility [4, 15]: 20 to 39.9 µM (≈ 7.87 to 15.7 µg/mL) | chromatographic logD [5]: 2.44

COC(=O)c1c[nH]c2cc(N3CCN(Cc4ccccc4)CC3)c(OC)cc2c1=O [Compound 8h, Methyl 7-(4-benzylpiperazin-1-yl)-6-methoxy-4-oxo-1,4-dihydroquinoline-3-carboxylate]
EC50 [1, 6]: 63.5 nM | EC50 (J774 mammalian cells; J774, read-out: EC50 J774 (μM)): 12.4 µM | solubility [4, 9]: 60 to 79.9 µM (≈ 24.4 to 32.6 µg/mL) | solubility [4, 10]: 40 to 59.9 µM (≈ 16.3 to 24.4 µg/mL) | chromatographic logD [5]: 2.03

COC(=O)c1c[nH]c2cc(N3CCN(Cc4ccc(OC)cc4)CC3)ccc2c1=O [Compound 8i, Methyl 7-(4-(4-methoxybenzyl)piperazin-1-yl)-4-oxo-1,4-dihydroquinoline-3-carboxylate]
EC50 [1, 6]: 19.9 nM | EC50 [2, 7]: 1340 nM | RI [2]: 67.3 | solubility [4, 9]: ≥ 80 µM | solubility [4, 10]: 40 to 59.9 µM (≈ 16.3 to 24.4 µg/mL) | chromatographic logD [5]: 2.08

COC(=O)c1c[nH]c2cc(CN3CCN(Cc4ccc5c(c4)OCO5)CC3)ccc2c1=O [Compound 8m, Methyl 7-((4-(benzo[d][1,3]dioxol-5-ylmethyl)piperazin-1-yl)methyl)-4-oxo-1,4-dihydroquinoline-3-carboxylate]
EC50 [1, 6]: 157 nM | EC50 (J774 mammalian cells; J774, read-out: EC50 J774 (μM)): > 20 µM | EC50 [2, 7]: > 5740 nM | RI [2]: >36.6 | solubility [4, 9]: ≥ 80 µM | solubility [4, 10]: ≥ 80 µM | chromatographic logD [5]: 0.87

COC(=O)c1c[nH]c2cc(CN3CCN(c4ccc(OC)cc4)CC3)ccc2c1=O [Compound 8n, Methyl 7-((4-(4-methoxyphenyl)piperazin-1-yl)methyl)-4-oxo-1,4-dihydroquinoline-3-carboxylate]
EC50 [1, 6]: 3.56 nM | EC50 [2, 7]: 222 nM | EC50 [3, 8]: 123 pM | EC50 ([3]; Plasmodium berghei, HepG2, text values printed in pM): 123 pM | % Inhibition Day 6 PI (Pb-infected mice; [13]): little to moderate protection | solubility [4, 14]: ≥ 80 µM | solubility [4, 15]: 40 to 59.9 µM (≈ 16.3 to 24.4 µg/mL) | chromatographic logD [5]: 2.11

COC(=O)c1c[nH]c2cc(CN3CCN(Cc4ccc(OC)cc4)CC3)c(C)cc2c1=O [Compound 8s, Methyl 7-((4-(4-methoxybenzyl)piperazin-1-yl)methyl)-6-methyl-4-oxo-1,4-dihydroquinoline-3-carboxylate]
EC50 [1, 6]: 2.4 nM | EC50 (J774 mammalian cells; J774, read-out: EC50 J774 (μM)): > 20 µM | EC50 [2, 7]: 1020 nM | RI [2]: 426 | % Inhibition Day 6 PI (Pb-infected mice; [13]): little to moderate protection | solubility [4, 9]: ≥ 80 µM | solubility [4, 10]: ≥ 80 µM | chromatographic logD [5]: 2.03

COC(=O)c1c[nH]c2cc(CN3CCN(Cc4ccc(OC)cc4)CC3)c(OC)cc2c1=O [Compound 8y, Methyl 6-methoxy-7-((4-(4-methoxybenzyl)piperazin-1-yl)methyl)-4-oxo-1,4-dihydroquinoline-3-carboxylate]
EC50 [1, 6]: 9.97 nM | EC50 (J774 mammalian cells; J774, read-out: EC50 J774 (μM)): > 20 µM | EC50 [2, 7]: 2750 nM | EC50 [3, 8]: 52400 pM | % Inhibition Day 6 PI (Pb-infected mice; [13]): little to moderate protection

Methyl 7-(4-benzylpiperazin-1-yl)-4-oxo-1,4-dihydroquinoline-3-carboxylate [Compound 8b]
EC50 ([1]; blood stage in vitro, strain W2, read-out: EC50 W2): 328 nM | RI [2]: 1.31 | EC50 ([2]; blood stage in vitro, atovaquone-resistant strain TM90-C2B, read-out: EC50 TM90-C2B): 430 nM | EC50 ([3]; HEPG2 cells): 5820 pM
